Test results: paper PMC11784183, “Identification of an antibiotic from an HTS targeting EF-Tu:tRNA interaction: a prospective topical treatment for MRSA skin infections” (Applied and Environmental Microbiology, 2024)

Settings: mouse, in vivo, ip, 10 mg/kg

CC[C@@H]1Cc2cc(O)ccc2C2=C1c1ccc(O)cc1C[C@H]2CC [MGC-10]
passage of the blood brain barrier: did not pass the blood brain barrier
